Results on 18 molecules are retold here after patent US20250346613A1, “BORIC ACID PROTEASOME INHIBITOR AND USE THEREOF” (ARTIVILA BIOPHARMA, priority 2022, published 2025).

One may read the IC50 as the concentration at which inhibition is half-maximal.

What all share (type): cell-based
Assay [1] addresses T1, β5c subunit of the 20S proteasome (Homo sapiens, UniProt P20618+P28074).
T1 construct: The proteasome tested in the present disclosure was derived from Raji cells; endogenous in cells; host or cells: Raji cells
Briefly: Proteasome inhibitory activity, β5c subunit (Raji cells treated with compound, lysed, Suc-LLVY-AMC substrate). The note with it: proteasome from Raji cells incubated with compound 4 h. From the text: (§1) In the present disclosure, the fluorescent peptide substrate Ac-Ala-Asn-Trp-AMC (abbreviated as Ac-ANW-AMC) and the […] kit containing a fluorescent peptide substrate Suc-Leu-Leu-Val-Tyr-AMC (abbreviated as Suc-LLVY-AMC) (Promega, Item No. G8660) were used to detect the activities of the β5i subunit and β5c subunit of the 20S proteasome, respectively.
(§2) The proteasome tested in the present disclosure was derived from Raji cells, the fluorescent substrate Ac-ANW-AMC was purchased from Roche company, and other reagents were purchased from Sigma company. The experimental system was divided into two parts of cell lysis system and enzyme reaction system. […] The starting concentration of the compound (inhibitor) was 1 μM. It was diluted in a 3-fold serial dilution to a total of 8 concentrations, that is, the administration concentration can be 1 μM, 0.333 μM, 0.111 μM . . . , respectively, and the specific experimental process was described below.
(§3) Raji cells (1×10^6 cells) cryopreserved in liquid nitrogen were thawed rapidly in a water bath at 37° C. The cell pellet was transferred to a 15 mL centrifuge tube, added with 9 mL of fresh medium (Gibco RPMI1640 added with 10% fetal bovine serum and 1% double antibiotics), centrifuged at 120 g for 5 min, inoculated to 25 mL cell culture flasks, and passaged once every 2-3 days.
(§4) The compound was weighed and dissolved in DMSO to a concentration of 10 mM. The compound was then sequentially diluted to concentrations of 200 μM, 66.67 μM, 22.22 μM, 7.41 μM, 2.47 μM, 0.82 μM, 0.27 μM, and 0.091 μM with fresh medium. Raji cells in a good growth status were inoculated into a 48-well cell culture plate at 7×10^5 cells/mL.
(§5) Raji cells in a good growth status were taken and counted. They were then inoculated to a 48-well cell culture plate at 7×10^5 cells/mL. Each 5 μL of the various concentrations of diluted compounds above were taken and added to the culture plate inoculated with cells, and the lowest concentration of compound was 0 μM. The drug bortezomib (Velcade) and ONX-0914 were used as the positive control compounds. All cells were incubated at 37° C. for 4 h.
(§6) The compound-treated cells were sequentially transferred into 1.5 mL centrifuge tubes, centrifuged at 10000 rpm for 2 min, and the supernatants were removed. The cell pellet was resuspended in 1 mL of PBS, centrifuged at 10000 rpm for 2 min, and the supernatant was removed. Cells were resuspended by adding 100 μL of cell lysate (50 mM Tris of pH 7.5, 150 mM NaCl, 5 mM MgCl2, 5 mM ATP, 1 mM DTT, 0.01% NP-40, 1 mM Digitonin, and Cocktail), placed in an ice bath for 30 min, and centrifuged at 13000 rpm for 10 min.
(§7) 2 mg of fluorescent peptide substrate AC-ANW-AMC was dissolved in 424.7 μL of DMSO to obtain an 8 mM stock solution, and stored at −20° C. The stock solution was diluted 100-fold to a final concentration of […] for use in the reaction system. The fluorescent peptide substrate Suc-LLVY-AMC was prepared according to the instructions of the Promega kit.
(§8) Each 20 μL of the prepared proteasome solution above was added to a 96-well white luciferase microplate and added with 25 μL of AC-ANW-AM substrate buffer solution (50 mM Tris of pH 7.5, 150 mM NaCl, 5 mM MgCl2, 5 mM ATP, 80 uM Ac-ANW-AMC and 1 mM DTT) and 25 μL of Suc-LLVY-AMC substrate buffer solution for 10 min of reaction at 37° C. in the dark. Fluorescence values were read at 345 nm/445 nm by using a fluorence microplate reader.
(§9) The data were exported and the inhibition rate in percentage was calculated according to the following formula: Inhibition rate=(maximum signal value-compound signal value)/(maximum signal value−blank signal value)×100%.
(§10) Where the maximum signal was obtained from cell lysates treated with DMSO only, and the blank signal was obtained from wells containing only lysates.

For assay [2], the target named is T2, β5i subunit of the 20S proteasome (Homo sapiens, UniProt P20618+P28062).
T2 construct: The proteasome tested in the present disclosure was derived from Raji cells; endogenous in cells; host or cells: Raji cells
Briefly: Proteasome inhibitory activity, β5i subunit (Raji cells treated with compound, lysed, Ac-ANW-AMC substrate). The note with it: proteasome from Raji cells incubated with compound 4 h.
Text: as §1, §2, §3, §4, §5, §6, §7, §8, §9, §10

A further assay concerns MM.1S cell strain. Briefly: Inhibitory activity of cell strain (CellTiter-Glo). The note with it: Homo sapiens, MM1.S, 72 h incubation. How it is done:
The cells used in this experiment were MM.1S cell strain and the detection reagent was CellTiter-Glo (Promega). […] The experimental process was described below. MM.1S cells in the logarithmic growth phase and in a good status were digested into individual cells by trypsin, centrifuged to remove the supernatant, and counted. Cells were diluted and 100 μL of cell suspension per well was added to a 96-well enzyme-coated plate at 1×10^5 cells per well. The wells containing only RPMI1640 complete medium were set as blank control. The 96-well plate was transferred to a 37° C. incubator containing 5% CO2 for 24 h of incubation.
The compound was accurately weighed and dissolved in DMSO to a concentration of 10^−2 M. 10 μL of compound was pipetted to 190 μL of DMSO to given a 5×10^−4 M compound. 6 μL of the compound (5×10^−5 M) was pipetted to a new 96-well microplate containing 194 μL of RPMI1640 complete medium and diluted in a 3-fold gradient dilution. 50 μL of the diluted compound was transferred to the 96-well microplate containing the cells such that the final compound concentrations were 5×10^−7 M, 1.67×10^−7 M, 5.55×10^−8 M, 1.85×10^−8 M, 6.17×10^−9 M, 2.06×10^−9 M, 6.86×10^−10 M, 2.29×10^−10 M, and 0 M. For the 0 M, no compound was added, and the same concentration of DMSO was added. The marketed drug bortezomib was used as a positive control. The 96-well microplate added with compounds was placed in the 37° C. incubator for 72 h of incubation.
At the predetermined detection time, the 96-well microplate to be detected was placed at room temperature, added with 40 μL of detection reagent (CellTiter-Glo) per well, and covered with a dark lid or piece of aluminium foil. The contents were mixed on an orbit oscillator for 10 min for complete cell lysis, with a vibration speed of 150 rpm. Luminescence values were detected on a multifunctional microplate reader (BioTek Synergy H1 Hybrid Multi-Mode Reade).
The data were exported and the percentage inhibition was calculated according to the following formula: Inhibition rate=(maximum signal value-compound signal value)/(maximum signal value−blank signal value)×100%, • wherein maximum signal was obtained from alone DMSO-treated cells, and blank signal was obtained from wells containing only culture medium.
Background: ATP-based viability assays read luminescence as a measure of living cells.

As to `COc1cccc(CCNC(=O)C(C)C(=O)N[C@@H](Cc2ccc(C)cc2)B(O)O)c1` (stereo partly drawn) [Example 62, ((1R)-1-(3-((3-methoxyphenylethyl)amino)-2-methyl-3-oxopropionamido)-2-(p-tolyl)ethyl)boric acid], the IC50 (in assay [1]; in assay [2]; in the assay with MM.1S cell strain) was not above 50 nM each time.

Take `Cc1ccc(C[C@H](NC(=O)C(C)C(=O)Nc2ccccc2)B(O)O)cc1` (stereo partly drawn) [Example 40, ((1R)-1-(2-methyl-3-oxo-3-(phenylamino)propionamido)-2-(p-tolyl)ethyl)boric acid]: the IC50 in assay [1] is 50 to 200 nM; in assay [2], not above 50 nM; in the assay on MM.1S cell strain, 50 to 200 nM.

For `COc1cccc(CNC(=O)CC(=O)N[C@@H](Cc2ccccc2)B(O)O)c1` [Example 49, (R)-(1-(3-((3-methoxybenzyl)amino)-3-oxopropionylamino)-2-phenylethyl)boric acid], the IC50 (in assay [1]; in assay [2]; in the assay with MM.1S cell strain) was not above 50 nM each time.

`COc1cccc(CNC(=O)C(C)C(=O)N[C@@H](Cc2ccc(-c3ccccc3)cc2)B(O)O)c1` (stereo partly drawn) [Example 36, ((1R)-2-([1,1′-biphenyl]-4-yl)-1-(3-((3-methoxybenzyl)amino)-2-methyl-3-oxopropionamido)ethyl)boric acid]: the IC50 (in assay [1]; in assay [2]; in the assay on MM.1S cell strain) was not above 50 nM throughout.

Consider `O=C(NCc1ccc2[nH]ccc2c1)C(Cc1ccccc1)C(=O)N[C@@H](Cc1coc2ccccc12)B(O)O` (stereo partly drawn) [Example 91, ((1R)-1-(3-(((1H-indol-5-yl)methyl)amino)-2-benzyl-3-oxopropionamido)-2-(benzofuran-3-yl)ethyl)boric acid], for which the results for the 50% inhibitory concentration (IC50) (in assay [1]; in assay [2]; in the assay with MM.1S cell strain) were 50 to 200 nM, not above 50 nM and not above 50 nM, respectively.

With `CC(C(=O)NCc1ccc(Cl)cc1Cl)C(=O)N[C@@H](Cc1coc2ccccc12)B(O)O` (stereo partly drawn) [Example 60, ((1R)-2-(benzofuran-3-yl)-1-(3-((2,4-dichlorobenzyl)amino)-2-methyl-3-oxopropionamido)ethyl) boric acid], the IC50 (in assay [1]; in assay [2]; in the assay on MM.1S cell strain) was not above 50 nM each time.

On to `O=C(CC(=O)N[C@@H](Cc1ccccc1)B(O)O)NCc1cccc(-c2ccccc2)c1` [Example 44, (R)-(1-(3-(([1,1′-biphenyl]-3-ylmethyl)amino)-3-oxopropionamido)-2-phenylethyl)boronic acid], for which the IC50 (in assay [1]; in assay [2]; with MM.1S cell strain) was not above 50 nM in each case.

Regarding `O=C(/C=C/C(=O)N[C@@H](Cc1ccccc1)B(O)O)NCc1cccc(-c2ccccc2)n1` [Example 14, (R,E)-(1-(4-oxo-4-(((6-phenylpyridin-2-yl)methyl)amino)but-2-enamido)-2-phenylethyl)boric acid], the IC50 (in assay [1]; in assay [2]; in the assay on MM.1S cell strain) was 50 to 200 nM throughout.

For the molecule `COc1cccc(CNC(=O)CC(=O)N[C@@H](Cc2coc3ccccc23)B(O)O)c1` [Example 46, (R)-(2-(benzofuran-3-yl)-1-(3-((3-methoxybenzyl)amino)-3-oxopropionamido)ethyl)boric acid], the IC50 (in assay [1]; in assay [2]; with MM.1S cell strain) was not above 50 nM in each case.

For the molecule `CC(C(=O)NCc1ccccc1)C(=O)N[C@@H](Cc1ccccc1)B(O)O` (stereo partly drawn) [Example 29, ((1R)-1-(3-(benzylamino)-2-methyl-3-oxopropionamido)-2-phenylethyl)boric acid], the half-maximal inhibitory concentration (IC50) in assay [1] is not above 50 nM; in assay [2] it was not above 50 nM; in the assay with MM.1S cell strain it was 50 to 200 nM.

As to `COc1cccc(CNC(=O)CC(=O)N[C@@H](Cc2ccc(C)cc2)B(O)O)c1` [Example 50, (R)-(1-(3-((3-methoxybenzyl)amino)-3-oxopropionylamino)-2-(p-tolyl)ethyl)boric acid], the IC50 (in assay [1]; in assay [2]; in the assay on MM.1S cell strain) was not above 50 nM each time.

As for `O=C(/C=C/C(=O)N[C@@H](Cc1ccccc1)B(O)O)Nc1ccccc1` [Example 8], the IC50 (in assay [2]; in the assay with MM.1S cell strain) was 50 to 200 nM each time.

With `CC(C(=O)NCc1cccc(C(F)(F)F)c1)C(=O)N[C@@H](Cc1ccc(-c2ccccc2)cc1)B(O)O` (stereo partly drawn) [Example 78, ((1R)-2-([1,1′-biphenyl]-4-yl)-1-(2-methyl-3-oxo-3-((3-(trifluoromethyl)benzyl)amino)propionamido)ethyl)boric acid], the IC50 in the assay with MM.1S cell strain is not above 50 nM.

Turning to `Cc1ccc(CNC(=O)/C=C/C(=O)N[C@@H](CC(C)C)B(O)O)cc1` [Example 11], in the assay on MM.1S cell strain, the IC50 is 200 to 500 nM.

For `Cc1ccc(C[C@H](NC(=O)C(F)C(=O)NCc2cccc(OC(F)(F)F)c2)B(O)O)cc1` (stereo partly drawn) [Example 96, ((1R)-1-(2-fluoro-3-oxo-3-((3-(trifluoromethoxy)benzyl)amino)propionamido)-2-(p-tolyl)ethyl)boric acid], in the assay with MM.1S cell strain, the IC50 is not above 50 nM.

Take `COc1cccc(CNC(=O)C(F)C(=O)N[C@@H](Cc2ccc(C)cc2)B(O)O)c1` (stereo partly drawn) [Example 103, ((1R)-1-(2-fluoro-3-((3-methoxybenzyl)amino)-3-oxopropionamido)-2-(p-tolyl)ethyl)boric acid]: in the assay on MM.1S cell strain, the IC50 is not above 50 nM.

Consider `COc1cccc(CNC(=O)C(C(=O)N[C@@H](Cc2ccc(-c3ccccc3)cc2)B(O)O)C(C)C)c1` (stereo partly drawn) [Example 76, ((1R)-2-([1,1′-biphenyl]-4-yl)-1-(2-((3-methoxybenzyl)carbamoyl)-3-methylbutanamido)ethyl)boric acid], for which the IC50 in the assay with MM.1S cell strain was not above 50 nM.

Regarding `O=C(NCc1cccc(OC(F)(F)F)c1)C(F)C(=O)N[C@@H](Cc1ccccc1)B(O)O` (stereo partly drawn) [Example 95, ((1R)-1-(2-fluoro-3-oxo-3-((3-(trifluoromethoxy)benzyl)amino)propionamido)-2-phenylethyl)boric acid], in the assay on MM.1S cell strain, the half-maximal inhibitory concentration (IC50) is not above 50 nM.
